According to patent US20110319384A1, “Pharmaceutical Compositions” (priority 2005, published 2011):
Like-named read-outs stand apart in the source and are kept apart here.

Columns and labels:
[1] = system: non-depressed patients with GAD; details: for change from baseline in HAM-A total score, observed case analysis: significant
[2] = system: patients with major depression with prominent anxiety symptoms; test: Example 33: double-blind randomized 8-week study, quetiapine augmentation of SSRIs/SNRIs
Experimental: Patients were also evaluated according to the CGI-S scale for severity, the Global Assessment scale (GAS) and for adverse events (AEs). Patients were evaluated at baseline and at Weeks 1, 2, 4, 6, and 8. Response was defined as a ≧50% reduction in HAM-D or HAM-A total scores from baseline to Week 8. Remission was defined as a HAM-D or HAM-A total score of 7 or lower at Week 8.
In order to be included in the study, patients had to have a DSM-IV diagnosis of major depression (HAM-D score ≧18), a CGI-S score ≧4, and a HAM-A score ≧14. […] Patients who had: (1) a current CNS disorder; (2) significant hepatic, renal or gastrointestinal impairment; (3) acute, unstable or significant and untreated medical conditions; (4) current substance abuse or dependence; or (5) were at risk for suicide were excluded. Pregnant or breast-feeding women were excluded also.

[3] = system: elderly patients with MDD and CV damage
[4] = system: patients with treatment resistant or non-remitted GAD
Excerpt: The study population was limited to GAD patients who had not remitted following at least 8 weeks of therapeutic doses of conventional therapy. Conventional therapy includes treatment with one of the following: citalopram, escitalopram, paroxetine, paroxetine CR, venlafaxine XR, sertraline, mirtazapine, fluoxetine, fluvoxamine, or no medication at all. Each patient provided informed consent and was observed on an outpatient basis.
The study population was comprised of patients between the ages of 22 and 61. Forty-eight percent of the study population was male and fifty-two percent was female. […] Patients with other psychiatric disorders, subjective suicidal tendencies, a Montgomery-Asberg Depression Rating Scale (MADRS) score >19, or serious medical conditions were excluded from the study. In addition, pregnant or lactating women and those who took medications prohibited by the study design (e.g., psychoactive substances and oral antipsychotics) within 2 weeks of the original screening were also excluded.
The mean change from baseline to Week 12 in HAM-A total scores was the primary endpoint. […] These additional efficacy assessments were all measured from baseline to Week 12.

[5] = system: patients with treatment resistant major depression; test: Example 24: augmentation of antidepressant therapy, quetiapine versus lithium, 56 days
Experimental: The study compared tolerability and efficacy. […] Lithium was initiated at 600 mg/day, and maintained over Week 1 and 2 and subsequently adjusted to attain a level of 0.8-1.2 mmol/L. Lithium levels were taken weekly.
A total of 20 patients were randomized to 1 of the 2 treatment groups. The study population included men and women aged 18-65 years, with a diagnosis of major depression according to DSM-IV, Hamilton Depression Rating Scale (HAM-D)≧20 and a Clinical Global […] (CGI) score ≧4.
Patients were evaluated at baseline and then on days 7, 14, 28, 42, and 56 using the HAM-D, Montgomery-Asberg […] (MADRS), SAS, and Widlocher Psychomotor Retardation Scale.

patients with GAD [6] = details: hypothesis to be tested
[7] = system: patients with treatment-resistant depression; test: Example 32: 8-week double-blind randomized placebo-controlled study, quetiapine added to SSRI/SNRI
Excerpt: Pregnant or lactating women, or those who were planning on becoming pregnant were not allowed to participate either. Participation in a clinical research study within 90 days of the start of this study also precluded applicants from participating. […] The primary efficacy endpoint for this study was HAM-D score at Week 8. Secondary endpoints included: (1) response (≧50% reduction in HAM-D score) and remission (HAM-D score <7) rates; (2) final Montgomery-Asberg Rating Scale score (MADRS); (3) CGI-S scores; and (4) CGI-I scores. Efficacy was assessed at baseline, then at Weeks 1, 2, 3, 4, 6, and 8. Adverse events (AEs) were also monitored.

[8] = system: patients with refractory depression (RD); test: Example 29: Cognitive Behavior Therapy (CBT) plus quetiapine or placebo
[9] = system: patients with Social Anxiety Disorder (SAD)
[10] = system: patients with residual anxiety and depression despite SSRI treatment
patients with GAD [11] = details: hypothesis to be tested; remark: listed apart in the source
[12] = add-on to antidepressants, mean dose 300 mg/day
[13] = adjunct to conventional therapy
[14] = adjunct to conventional therapy, mean dose 386 mg/day
[15] = add-on to antidepressant, mean doses quetiapine 430 mg/day, lithium 825 mg/day
[16] = depressive symptoms in GAD, vs placebo
[17] = patient satisfaction, vs placebo
[18] = response rate vs placebo, Day 57

OCCOCCN1CCN(C2=Nc3ccccc3Sc3ccccc32)CC1 [quetiapine, 11-[4-[2-(2-hydroxyethoxy)ethyl]-1-piperazinyl]-dibenzo[b,f][1,4]thiazepine]
reduction in HAM-A psychic anxiety subscale, observed cases ([1]; Week 2, placebo −3.0): −6.6
change from baseline in HAM-A total score, observed case analysis ([1]; Week 2, placebo −5.9): −11.1
reduction in HAM-A psychic anxiety subscale, observed cases ([1]; Week 4, placebo −4.0): −7.8
change from baseline in HAM-A total score, observed case analysis ([1]; Week 4, placebo −8.6): −13.7
mean decrease from baseline in HAM-A total score ([1]; baseline to week 6, ITT, LOCF, placebo about 9, difference not significant, mean dose 125 mg/day): about 12
AIMS, SAS, or BARS scores versus placebo ([1]; in vivo): no statistically significant differences
tolerability ([1]; in vivo): generally well tolerated
patients who discontinued treatment because of AEs ([1]; of 19 in the group): Five
remission rate at endpoint (HAM-A total score ≦7) ([1]; placebo 21.1%, not statistically significant): 42.1%
response rate at endpoint (≧50% reduction in HAM-A total score) ([1]; placebo 36.8%, not statistically significant): 57.9%
reduction from baseline on the CGI-S ([1]; placebo −1.05): −1.37
reduction from baseline on the Hospital Anxiety and Depression (HAD) anxiety subscale ([1]; placebo −3.16): −3.79
reduction from baseline on the HAM-A somatic subscale ([1]; placebo −4.4): −5.2
mean HAM-A score at baseline ([2]; added to SSRI/SNRI): about 23
mean HAM-D score at baseline ([2]; added to SSRI/SNRI): about 23
mean HAM-A score after treatment ([2]; added to SSRI/SNRI, 8 weeks): about 10
mean HAM-D score after treatment ([2]; added to SSRI/SNRI, 8 weeks): about 12
mean improvement from baseline in HAM-A scores ([2]; added to SSRI/SNRI, 8 weeks, placebo about 5): about 13
mean improvement from baseline in HAM-D scores ([2]; added to SSRI/SNRI, 8 weeks, placebo about 5, mean dose 202 mg/day): about 11
CGI-S and GAS assessments ([2]; in vivo): significantly more effective than placebo
serious AEs ([2]; in vivo): no serious AEs were reported
patients with an increase in bodyweight ≧5 kg ([2]; no patients in the placebo group): 6 patients
remission rate as assessed by HAM-A (total score of 7 or lower at Week 8) ([2]; placebo 17%): 41%
remission rate as assessed by HAM-D (total score of 7 or lower at Week 8) ([2]; placebo 17%): 31%
response rate as assessed by HAM-A (≧50% reduction to Week 8) ([2]; placebo 28%): 62%
response rate as assessed by HAM-D (≧50% reduction to Week 8) ([2]; placebo 28%): 48%
mean CGI-S score after 6 months ([3]; add-on to antidepressants): about 5
mean CGI-S score at baseline ([3]; add-on to antidepressants): about 6
mean HAM-D score after 6 months [3, 12]: about 15
mean HAM-D score at baseline [3, 12]: about 27
discontinuation of the study ([3]; in vivo): No patients discontinued the study
side effects reported ([3]; the only side effects reported): Sedation and drowsiness
Dysfunctional Beliefs and Attitudes about Sleep Scale (DBAS) mean at Week 12 [4, 13]: about 73
Dysfunctional Beliefs and Attitudes about Sleep Scale (DBAS) mean at baseline [4, 13]: about 88
PSQI (sleep quality) baseline mean [4, 13]: about 17
PSQI (sleep quality) mean in Week 12 [4, 13]: about 7
Penn State Worry Questionnaire (PSWQ) mean at Week 12 [4, 13]: about 44
Penn State Worry Questionnaire (PSWQ) mean at baseline [4, 13]: about 53
mean HAM-A total score after 12 weeks of treatment [4, 14]: about 9
mean HAM-A total score at baseline [4, 14]: about 30
improvement in mean Sheehan Disability Inventory (SDI) scores (work, family, social interactions) ([4]; baseline to Week 12): about 2
mean total weight gain and BMI ([4]; baseline to Week 12): slight increases
patients who entered the study reporting sedation as an adverse event ([4]; in vivo): Forty
serious adverse events ([4]; in vivo): no serious adverse events were reported
vital signs or laboratory assessments ([4]; in vivo): no clinically significant changes
patients who withdrew due to adverse events ([4]; of 50 patients eligible for inclusion): seven
patients who withdrew because of sedation ([4]; of the patients withdrawn for adverse events): five
Widlocher Psychomotor Retardation Scale mean baseline score ([5]; add-on to antidepressant): about 30
Widlocher Psychomotor Retardation Scale mean score after treatment ([5]; add-on to antidepressant): about 7
mean MADRS score after Day 7 up to Day 56 (end value) ([5]; add-on to antidepressant): about 8
mean MADRS score, start value 'After Day 7' ([5]; add-on to antidepressant): about 38
mean HAM-D score at Day 56 [5, 15]: about 5
mean HAM-D score, start value of 'From Day 7 to 56' [5, 15]: about 26
patients in remission (HAM-D) ([5]; after 56 days): about 80%
patients who responded (MADRS) ([5]; after 56 days): Eighty
patients who responded to treatment (HAM-D) ([5]; after 56 days): about 80%
patients who achieved remission (MADRS) ([5]; at 56 days): Eighty
SAS scale scores versus baseline ([5]; in vivo): decreased scores from baseline
Somnolence: severity of AEs, time of first instance, withdrawals due to AE of somnolence (patients with GAD [6]; compared to placebo): generally mild, occurs early in
Change from randomization in MADRS total score at Day 57 (patients with GAD [6]; [16]): Quetiapine is more effective
Adverse events related to discontinuation; change in Discontinuation-Emergent Signs and Symptoms total score at Day 64 and Day 71 (patients with GAD [6]; discontinuation symptoms): Quetiapine does not have
Change from normal to Clinically Important in Physical Examinations; Laboratory values; Vital signs; ECGs (patients with GAD [6]; once daily up to 300 mg/day): 300 mg/day is safe and well
Change from randomization in Q-les-Q Item 15 (Satisfaction with medication) at Day 57 (patients with GAD [6]; [17]): Quetiapine is more effective
Change from randomization in HAM-A total score, HAM-A psychic cluster, HAM-A somatic cluster and CGI-S score at Day 8 (patients with GAD [6]; patients with GAD, Day 8): anti-anxiety effect by Day 8
Change from randomization in Q-les-Q total score and Q-les-Q Item 16 (Overall life satisfaction) at Day 57 (patients with GAD [6]; quality of life, vs placebo): Quetiapine is more effective
HAM-A Response (decrease from randomization total score of ≧50%) at Day 8 (patients with GAD [6]; response rate vs placebo, Day 8): Quetiapine has a greater
HAM-A Response (decrease from randomization total score of ≧50%) at Day 57 (patients with GAD [6]; [18]): Quetiapine has a greater
Adverse events of nausea or vomiting (patients with GAD [6]; vs placebo): placebo levels of nausea and
Adverse events related to EPS (including akathisia); change in SAS and BARS scores at Day 57 (patients with GAD [6]; vs placebo): placebo levels of EPS
HAM-A Remission (HAM-A total score ≦7) at Day 57 (patients with GAD [6]; vs placebo, Day 57): Quetiapine is better than
Change from randomization in CGI-S score, CGI-I (much or very much improved), HAM-A psychic cluster and HAMA somatic cluster at Day 57 (patients with GAD [6]; vs placebo, across anxiety symptoms, Day 57): Quetiapine is more effective
mean HAM-D score at study end ([7]; added to SSRI/SNRI, Week 8, placebo about 15): about 8
mean MADRS score at study end ([7]; added to SSRI/SNRI, placebo about 24): about 15
mean weight gain ([7]; in vivo): about 6 kg
most common side effects ([7]; in vivo): fatigue, dry mouth, and sedation/somnolence
patients who withdrew from the study due to serious adverse events ([7]; in vivo): No patients
tolerability ([7]; in vivo): generally well-tolerated
final mean CGI-I score ([7]; placebo 3.5): 2.5
final mean CGI-S score ([7]; placebo 3.8): 2.8
patients who achieved remission (HAM-D score <7) ([7]; placebo 15%): 43%
patients who responded to treatment (≧50% reduction in HAM-D score) ([7]; placebo 27%): 67%
lack of response drop-outs ([8]; 50% drop-out rate in the CBT+placebo arm): no lack of response drop-outs
all primary efficacy measures (MADRS, HAM-D) ([8]; CBT 12 weekly sessions, quetiapine up to 200 mg twice a day, no significant reductions with CBT+placebo): significantly reduced
most common side effect ([8]; in vivo): Somnolence
serious adverse events ([8]; in vivo): No serious adverse events were observed
study survivability (at least 4 or more CBT sessions prior to withdrawal) ([8]; in vivo): increased study survivability
tolerability ([8]; in vivo): generally well-tolerated
BSPS scores versus placebo at baseline or endpoint ([9]; in vivo): no significant differences
SPIN or SDI scores versus placebo at baseline or endpoint ([9]; in vivo): no significant difference
mean CGI-I scores at endpoint versus placebo ([9]; in vivo): no significant difference
most frequent side effects ([9]; in vivo): drowsiness, dizziness, and nausea
serious adverse events ([9]; in vivo): No serious adverse events were reported
patients who scored a 1 or 2 on the CGI-I scale ([9]; placebo 0%): 40%
patients experiencing a ≧50% drop in BSPS score at endpoint compared with baseline ([9]; placebo 0%, mean final dose 147 mg twice a day): 20%
mean HAM-A score after 9 weeks of treatment ([10]; added to stable SSRI): about 6
mean HAM-A score at baseline ([10]; added to stable SSRI): about 25
mean HAM-D score after 9 weeks of treatment ([10]; added to stable SSRI): about 6
mean HAM-D score at baseline ([10]; added to stable SSRI): about 20
mean State Anxiety Inventory (SAI) score after 9 weeks of treatment ([10]; added to stable SSRI): about 30
mean State Anxiety Inventory (SAI) score at baseline ([10]; added to stable SSRI): about 51
BARS or SAS scores ([10]; in vivo): no clinically relevant changes
discontinuation as a result of an adverse event ([10]; in vivo): no patient discontinued therapy
most common side effects ([10]; in vivo): Drowsiness, mild dry mouth, and constipation
reduction in scores, HAM-A individual subjects analysis ([10]; in vivo): ≥ 50%
serious adverse events ([10]; in vivo): No serious adverse events occurred
weight gain ([10]; in vivo): minimal for all patients but one
Adverse events of nausea or vomiting (patients with GAD [11]; compared to escitalopram): lower levels of nausea and
Incidence of withdrawals due to adverse events (patients with GAD [11]; compared to escitalopram): Quetiapine has similar
Sexual dysfunction: change from randomization in CSFQ total score at Day 57 (patients with GAD [11]; compared to escitalopram): lower levels of sexual
Somnolence: severity of AEs, time of first instance, withdrawals due to AE of somnolence (patients with GAD [11]; compared to placebo): generally mild, occurs early in
Change from randomization in HAM-A total score, HAM-A psychic cluster, HAM-A somatic cluster and CGI-S score at Day 4 (patients with GAD [11]; compared to placebo, Day 4): anti-anxiety effect by Day 4
Change from randomization in MADRS total score at Day 57 (patients with GAD [11]; [16]): Quetiapine is more effective
Adverse events related to discontinuation; change in Discontinuation-Emergent Signs and Symptoms total score at Day 64 and Day 71 (patients with GAD [11]; discontinuation symptoms): Quetiapine does not have
Change from normal to Clinically Important in Physical Examinations; Laboratory values; Vital signs; ECGs (patients with GAD [11]; once daily up to 300 mg/day): 300 mg/day is safe and well
Change from randomization in Q-les-Q Item 15 (Satisfaction with medication) at Day 57 (patients with GAD [11]; [17]): Quetiapine is more effective
Change from randomization in Q-les-Q total score and Q-les-Q Item 16 (Overall life satisfaction) at Day 57 (patients with GAD [11]; quality of life, vs placebo): Quetiapine is more effective
HAM-A Response (decrease from randomization total score of = 50%) at Day 4 (patients with GAD [11]; response rate vs placebo, Day 4): Quetiapine has a greater
HAM-A Response (decrease from randomization total score of = 50%) at Day 57 (patients with GAD [11]; [18]): Quetiapine has a greater
Adverse events of nausea or vomiting (patients with GAD [11]; vs placebo): placebo levels of nausea and
Adverse events related to EPS (including akathisia); change in SAS and BARS scores at Day 57 (patients with GAD [11]; vs placebo): placebo levels of EPS
HAM-A Remission (HAM-A total score = 7) at Day 57 (patients with GAD [11]; vs placebo): Quetiapine is better than
Sexual dysfunction: change from randomization in CSFQ total score at Day 57 (patients with GAD [11]; vs placebo): placebo levels of sexual
Change from randomization in CGI-S score, CGI-I (much or very much improved), HAM-A psychic and somatic clusters at Day 57 (patients with GAD [11]; vs placebo, across anxiety symptoms): Quetiapine is more effective
